Experimental data as given in US11478528B2, “Antimicrobial peptides against Listeria monocytogenes” (MATERIAS S.r.l., priority 2017, dated 2022).
“Also recorded” adds a separate entry of the source. Ends that are not written are not given here.

Columns and labels:
[1] = system: S. thyphimurium (ATCC); type: cell-based, Salmonella typhimurium; details: 6 h
Description: (§1) The evaluation of the minimum bactericidal concentration (MBC) was carried out as described in Bilikova et al, (2015, Peptides 68:190-196) and the evaluation of the effective concentration to reduce 50% of the bacterial population (EC50) of the two peptides was carried out with the micro-dilutions of the broth as described in Wang H X and Ng T B (2003, Peptides 24:969-972). Standard deviations for triple incubations of each plate and EC50 evaluation were determined using GraphPad Prism version 6.00 (Graph-Pad Software, La Jolla Calif. USA) Salmonella typhimurium A control stock suspension was prepared in which 10^3 CFU of S. typhimurium (ATCC13311 strain) were inoculated in 10 ml of BPW (Oxoid, Basingstoke, UK). […] Each dilution series included control plates inoculated with DMSO without the peptide and control plates with bacteria alone. In all the investigated experimental conditions, the plate counting method was used to estimate the bactericidal activity of the peptides. Specifically, the number of colonies grown on plates with agar seeded with bacterial suspensions in the absence or in the presence of individual dilutions of peptides was counted and compared. The standard deviations of the triple incubations of each plate were determined using statistical software. […]

[2] = pH stability assay by Circular Dichroism; details: for pH range with increase in the percentage of unordered random coil structure: 10 mM SDS, 24 hours at 37° C.
Description: The stability of the Bac-amp1 and IDR-1018 peptides was assessed by studying their secondary structure with Circular Dichroism (CD) spectroscopy in the presence of Sodium Dodecyl Sulfate (SDS) micelles at a concentration of 10 mM to mimic the condition of the cell membrane, in different temperature and pH conditions.
CD assays were performed with a Jasco J-810 Spectropolarimeter equipped with a thermostatted cuvette compartment. The samples were loaded into a 0.1 cm-long quartz cuvette (Hellma Analytics) and the spectrum was analyzed in the 190 nm to 250 nm range at temperatures of 15° C. or 90° C. for each sample.
The CD spectra were acquired at a scanning speed of 20 nm/min, and the recorded results represent an average of 5 scans. The spectra at 90° C. were collected at time zero and after 2 hours to evaluate the thermostability of peptides at high temperatures.
The average ellipticity of the residues ([θ], degrees cm^2 dmol^−1) was calculated using the following equation: [θ]=100θ/cn1 where θ represents ellipticity (m degrees), c is the concentration (mM) of the peptide, n is the number of residues. The secondary structure was calculated through the DICHROWEB site (Whitmore L and Wallace B A, 2004, Nucleic Acids Research 32: 668-673, Whitmore L and Wallace B A, 2008, Biopolymers 89:392-400, Lobley et al, 2002, Bioinformatics 18:211-212), using three different algorithms (SELCON3, CONTIN-LLe CDSSTR) (Sreerema N and Woody R W, 1993, Analytical Biochemistry 287:252-260; Sreerema N et al, 1999, Protein Science 8:370-380, Provencher S W and Glockner J, 1981, Biochemistry 20:33-37, Van Stokkum I H M et al, 1990, Analytical Biochemistry 191:110-118, Compton L A and Johnson W C, 1986, Analytical Biochemistry 155:155-167, Manavalan P and Johnson W C, 1987, Analytical Biochemistry 167:76-85, Sreerama N et al, 2000, Protein Science 8:370-380) and selecting as a comparison data set the SMP180 protein, which includes a high number of soluble and membrane proteins (Abdul-Gader A et al, 2011, Bioinformatics 27:1630-1636). […]

[3] = system: Listeria monocytogenes (ATCC strain and field strains SS1-SS5)
Description: The bactericidal activity of the Bac-amp1 and IDR-1018 peptides was evaluated against both Gram+ (Listeria monocytogenes and Staphylococcus aureus) and Gram− (Salmonella typhimurium) pathogenic bacteria.
Standard deviations for triple incubations of each plate and EC50 evaluation were determined using GraphPad Prism version 6.00 (Graph-Pad Software, La Jolla Calif. USA)
As regards Listeria monocytogenes, five field strains were added to the trial (wild strains) SS1 (serotype 4b), SS2 (serotype 4b), SS3 (serotype 4b), SS4 (serotype 4b), SS5 (serotype ½c) shown in Table 2. These strains were isolated from 200 samples of food waste, in particular fish products and milk derivatives, obtained from workbenches of food companies. All samples were collected in a context of official controls. Isolation of Listeria monocytogenes strains was performed according to the ISO-11290-1 standard. […]
In all the investigated experimental conditions, the plate counting method was used to estimate the bactericidal activity of the peptides. Specifically, the number of colonies grown on plates with agar seeded with bacterial suspensions in the absence or in the presence of individual dilutions of peptides was counted and compared. The standard deviations of the triple incubations of each plate were determined using statistical software. […]

[4] = system: S. aureus (NCTC); type: cell-based, Staphylococcus aureus; details: 6 h
Description: as §1, with “Staphylococcus aureus” for “Salmonella typhimurium”, “(6571” for “(ATCC13311”, “BPW.” for “BPW (Oxoid, Basingstoke, UK).”, “Also in this case, the” for “Each”, “only. 50 μl of each bacterial suspension were poured onto petri dishes with blood agar or rabbit plasma fibrinogen agar and incubated for 20 hours at 37° C.” for “alone.”, “compared.” for “compared. The standard deviations of the triple incubations of each plate were determined using statistical software.”

[5] = system: L. monocytogenes biofilms
Description: The antibiofilm activity of the Bac-amp1 and IDR-1018 peptides was tested by analyzing their ability to inhibit the formation of bacterial biofilms of L. monocytogenes.
The ability of peptides to prevent the formation of L. monocytogenes biofilms was determined according to the microplate assay described in G. Di Bonaventura et al. (2008, J Appl Microbiol 104(6):1552-61) with some modifications.
10 ml of bacterial suspension were then centrifuged the cell pellet was washed in PBS and diluted in BHI broth, reaching the concentration of about 10^3 CFU/ml of standardized inoculum.
The biofilm formation assays were conducted using as target surfaces the Aisi 304 stainless steel discs having a diameter of 14.5 mm (SS) used in the food industry as food contact surfaces. The discs were placed on 24-well Falcon® tissue culture plates, (Thermo Fisher Scientific Inc., Waltham, Mass., USA), with flat bottom and lid. Before use, the stainless steel discs were immersed in 10% acetone and left under weak stirring at room temperature for 30 min. After washing in ultrapure sterile water, the discs were incubated in ethanol 99.8% for 10 minutes under weak stirring and then washed in ultrapure sterile water, dried, packaged and sterilized at 121° C., 1 atm for 15 minutes.
In each set of experiments, 600 μl of standardized inoculum in the presence or absence of each of the peptides at the concentration of 12.5 μM, 25 μM or 50 μM were added to 24-well culture plates containing the previously treated stainless steel materials. BHI Broth was used as a negative control. The plates were incubated at 37° C. for 72 hours under static conditions. The cell count of L. monocytogenes, according to the ISO 11290-2:98 method. After incubation, the SS discs were washed three times with PBS and placed in a new plate to dry at 60° C. for 1 hour. […] Quantitative analysis of biofilm production was performed by adding 1 ml of 33% acetic acid, which removes the dye from the adhered cells. 200 μl of the obtained solution were transferred to a microplate and the crystal violet level (OD) was measured at 492 nm. […]

[6] = system: L. monocytogenes (LM2 food-isolated strain); assay: Antimicrobial activity of Bac-amp1 coupled gold nanoparticles (CFU count); type: cell-based, Listeria monocytogenes; details: 0.10 μM to 0.58 μM, 15×10^4 CFU/mL, 6 h at 37° C.
Description: The bactericidal efficacy of the functionalized gold nanoparticles prepared in Example 6 was determined against L. monocytogenes (LM2 food-isolated strain) and S. Typhimurium (ATCC 13311 strain) bacteria, which allowed the evaluation of the minimal bactericidal concentration (MBC50), corresponding to the lowest peptide concentration able to cause at least 50% reduction in the number of viable bacteria on agar plates.
L. monocytogenes and S. Typhimurium were grown at 37° C. in Half Fraser (Biorad-Italia) and BPW (Biomerieux-Italia) broths, respectively. […]
Data were determined by numbering the surviving colony forming units (CFU) in the Au—NPs-Bac-amp1 plates and in the Au—NPs plates and were expressed as percent decrease in the number of CFU with respect to the initial number of CFU. […]
Thus, in another set of experiments, the activity of Bac-amp1 coupled nanoparticles was determined incubating 15×10^4 CFU/mL (colony forming units/mL) of Listeria with increasing concentrations, ranging from 0.10 μM to 0.58 μM, of coupled nanoparticles (Au—NPs-Bac-amp1 plates), non-functionalized gold nanoparticles (Au—NPs plates) or free peptides (Bac-amp1 plates) for 6 h at 37° C. The number of viable colonies for the different plates at each concentration tested were counted.

[7] = system: L. monocytogenes biofilms; assay: Antibiofilm activity assay with SEM on steel discs; type: cell-based, Listeria monocytogenes; details: for cells on steel discs by SEM, 5000× image: 50 μM
Description: The activity of the Bac-amp1 and IDR-1018 peptides on L. monocytogenes biofilms was further investigated by scanning electron microscopy (SEM).
Specifically, in this example the three-dimensional biofilm architecture, developed on stainless steel materials, was studied.
The Aisi 304 stainless steel discs with a diameter of 14.5 mm (SS) were treated with 600 μl of standardized inoculum in the presence or absence of each of the peptides at the concentration of 25 μM or 50 μM, or with control medium, according to the same method of Example 4a and repeatedly washed in sterile PBS to remove planktonic cells and fixated on a new plate with 1 ml of Karnovsky fixative containing 5% glutaraldehyde, 4% paraformaldehyde in buffer 0.064 M (Electronic Microscopy Science, Hatfield, Pa., USA) for 1 hour at 4° C. Thereafter, the samples were washed in 0.1 M cacodylate sodium buffer at pH 7.4 (Electronic Microscopy Science, Hatfield, Pa., USA) and the fixated cells were dehydrated in a series of aqueous acetone solutions at different concentrations, in particular 25%, 50%, 75% and 100%. The samples were glued onto polished aluminium sample holders (Electronic Microscopy Science, Hatfield, Pa., USA) and uniformly vacuum coated with a 20-nm thick gold layer with the K950 high-vacuum Turbo Evaporator and a K 350 coupling (Emitech Ltd, Ashford, UK). The coated samples were examined at the JEOL 6700 FEG Field Emission Electron Microscope (SEM Jeol, City and State) with magnification from 1000× to 5000×. For each sample, a number of images (5-10), acquired as electronic images were randomly analyzed.

[8] = Thermostability assay by Circular Dichroism; type: physicochemical; details: 15 to 90° C., 2 hours at 90° C., pH 6, 10 mM SDS
Description: The prepared samples were incubated for two hours at 15° C. or 90° C. A CD analysis was performed on samples stored at 15° C. and before and after incubation for two hours at 90° C.

Row | Substance | EC50 [1] [nM] | pH range with increase in the percentage of unordered random coil structure [2] | MIC, bactericidal activity against Listeria monocytogenes ([3]; ATCC strain and field strains SS1-SS5) | EC50 ([3]; ATCC strain and field strains SS1-SS5, 6 h) [nM] | EC50 [4] [nM] | MIC, antibiofilm activity ([5]; biofilms) [µM] | MBIC100 (minimum biofilm inhibiting concentration) ([5]; biofilms, 72 h) [µM] | reduction of microbial biomass ([5]; concentrations of 25-50 μM, 72 h, 37° C., steel discs) [%] | bacterial cell death versus concentration [6] | biofilm formation by SEM ([7]; 25 μM) | cells on steel discs by SEM, 5000× image [7] | conformational stability at different pH ([2]; pH 1.0 to 11.0) | thermostability (CD spectra) [8]
1 | VRLIVKVRIWRR-NH2 [Bac-amp1, VRLIVKVRIWRR-NH2] | 2830 | 1.0-4.0 | below 10 μM | 550 | 1660 | 25 to 50 | 25 to 50 | 100 | dose-dependent bacterial cell death | significantly reduces the formation of biofilm | near absence of cells | – | –
2 | VRLIVAVRIWRR-NH2 [IDR-1018, VRLIVAVRIWRR] | – | 8.0-11.0 | – | – | – | – | – | – | – | – | a greater number of cells | higher conformational stability at pH 1.0; also recorded: greater conformational stability at pH 1.0 | high thermostability
